Key:
Test in all cases: relative viability (nuclei count vs DMSO), 5 days (fraction); higher = more cells survive
[1] = tested on: CAL-12T
Method in brief: (§1)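 Medians of duplicate plates are given as relative viability. That measure is the nuclei count in treated wells divided by the count in vehicle wells. Counts were taken on 4× images of lung cancer cell lines in 1536-well plates, 5 days after pin-tool dosing the day after seeding with one drug alone or a fixed anchor-drug dose plus five library-drug doses (not always all listed) in √10 steps.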

[2] = tested on: NCI-H322M
Method in brief: as §1

[3] = tested on: SW 900
Method in brief: as §1

[4] = tested on: NCI-H727
Method in brief: as §1

[5] = tested on: HCC-15
Method in brief: as §1

[6] = tested on: NCI-H358
Method in brief: as §1

[7] = tested on: LK-2
Method in brief: as §1

[8] = tested on: EKVX
Method in brief: as §1

[9] = tested on: ABC-1
Method in brief: as §1

[10] = tested on: NCI-H522
Method in brief: as §1

[11] = tested on: NCI-H520
Method in brief: as §1

[12] = tested on: NCI-H1651
Method in brief: as §1

[13] = tested on: COR-L 105
Method in brief: as §1

[14] = tested on: BEN
Method in brief: as §1

[15] = tested on: NCI-H460
Method in brief: as §1

[16] = tested on: 201T
Method in brief: as §1

[17] = tested on: LU99A
Method in brief: as §1

[18] = tested on: HCC-44
Method in brief: as §1

[19] = tested on: PC-3 [JPC-3]
Method in brief: as §1

[20] = tested on: NCI-H838
Method in brief: as §1

[21] = tested on: EMC-BAC-2
Method in brief: as §1

[22] = tested on: NCI-H2023
Method in brief: as §1

## CCNC(=O)c1noc(-c2cc(C(C)C)c(O)cc2O)c1-c1ccc(CN2CCOCC2)cc1 [Luminespib] + O=C(CCCCCCC(=O)Nc1ccccc1)NO [Vorinostat] (partner 1 µM)
[1]; first compound 0.002 µM
  relative viability: 0.725
[1]; first compound 0.006325 µM
  relative viability: 0.802
[1]; first compound 0.02 µM
  relative viability: 0.29
[1]; first compound 0.06325 µM
  relative viability: 0.101
[1]; first compound 0.2 µM
  relative viability: 0.118
[2]; first compound 0.002 µM
  relative viability: 0.83
[2]; first compound 0.006325 µM
  relative viability: 0.407
[2]; first compound 0.02 µM
  relative viability: 0.736
[2]; first compound 0.06325 µM
  relative viability: 0.486
[2]; first compound 0.2 µM
  relative viability: 0.417
[3]; first compound 0.002 µM
  relative viability: 0.455
[3]; first compound 0.006325 µM
  relative viability: 0.489
[3]; first compound 0.02 µM
  relative viability: 0.266
[3]; first compound 0.06325 µM
  relative viability: 0.124
[3]; first compound 0.2 µM
  relative viability: 0.0992
[4]; first compound 0.002 µM
  relative viability: 1.1
[4]; first compound 0.006325 µM
  relative viability: 1.21
[4]; first compound 0.02 µM
  relative viability: 0.832
[4]; first compound 0.06325 µM
  relative viability: 1.04
[4]; first compound 0.2 µM
  relative viability: 0.31
[5]; first compound 0.002 µM
  relative viability: 0.792
[5]; first compound 0.006325 µM
  relative viability: 0.805
[5]; first compound 0.02 µM
  relative viability: 0.942
[5]; first compound 0.06325 µM
  relative viability: 0.583
[5]; first compound 0.2 µM
  relative viability: 0.173
[6]; first compound 0.002 µM
  relative viability: 0.662
[6]; first compound 0.006325 µM
  relative viability: 0.66
[6]; first compound 0.02 µM
  relative viability: 0.669
[6]; first compound 0.06325 µM
  relative viability: 0.0646
[6]; first compound 0.2 µM
  relative viability: 0.0598
[7]; first compound 0.002 µM
  relative viability: 0.305
[7]; first compound 0.006325 µM
  relative viability: 0.374
[7]; first compound 0.02 µM
  relative viability: 0.201
[7]; first compound 0.06325 µM
  relative viability: 0.146
[7]; first compound 0.2 µM
  relative viability: 0.163
[8]; first compound 0.002 µM
  relative viability: 0.466
[8]; first compound 0.006325 µM
  relative viability: 0.684
[8]; first compound 0.02 µM
  relative viability: 0.47
[8]; first compound 0.06325 µM
  relative viability: 0.669
[8]; first compound 0.2 µM
  relative viability: 0.572
[9]; first compound 0.002 µM
  relative viability: 1.34
[9]; first compound 0.006325 µM
  relative viability: 0.291
[9]; first compound 0.02 µM
  relative viability: 1.06
[9]; first compound 0.06325 µM
  relative viability: 0.269
[9]; first compound 0.2 µM
  relative viability: 0.325
[10]; first compound 0.002 µM
  relative viability: 0.81
[10]; first compound 0.006325 µM
  relative viability: 0.904
[10]; first compound 0.02 µM
  relative viability: 0.772
[10]; first compound 0.06325 µM
  relative viability: 0.607
[10]; first compound 0.2 µM
  relative viability: 0.354
[11]; first compound 0.002 µM
  relative viability: 0.748
[11]; first compound 0.006325 µM
  relative viability: 0.747
[11]; first compound 0.02 µM
  relative viability: 0.624
[11]; first compound 0.06325 µM
  relative viability: 0.197
[11]; first compound 0.2 µM
  relative viability: 0.166
[12]; first compound 0.002 µM
  relative viability: 0.516
[12]; first compound 0.006325 µM
  relative viability: 0.481
[12]; first compound 0.02 µM
  relative viability: 0.371
[12]; first compound 0.06325 µM
  relative viability: 0.542
[12]; first compound 0.2 µM
  relative viability: 0.505
[13]; first compound 0.002 µM
  relative viability: 0.917
[13]; first compound 0.006325 µM
  relative viability: 0.84
[13]; first compound 0.02 µM
  relative viability: 0.959
[13]; first compound 0.06325 µM
  relative viability: 0.43
[13]; first compound 0.2 µM
  relative viability: 0.278
[14]; first compound 0.002 µM
  relative viability: 0.608
[14]; first compound 0.006325 µM
  relative viability: 0.546
[14]; first compound 0.02 µM
  relative viability: 0.358
[14]; first compound 0.06325 µM
  relative viability: 0.525
[14]; first compound 0.2 µM
  relative viability: 0.36
[15]; first compound 0.002 µM
  relative viability: 0.775
[15]; first compound 0.006325 µM
  relative viability: 0.68
[15]; first compound 0.02 µM
  relative viability: 0.237
[15]; first compound 0.06325 µM
  relative viability: 0.0162
[15]; first compound 0.2 µM
  relative viability: 0.0131
[16]; first compound 0.002 µM
  relative viability: 0.959
[16]; first compound 0.006325 µM
  relative viability: 0.872
[16]; first compound 0.02 µM
  relative viability: 0.768
[16]; first compound 0.06325 µM
  relative viability: 0.913
[16]; first compound 0.2 µM
  relative viability: 0.324
[17]; first compound 0.002 µM
  relative viability: 0.58
[17]; first compound 0.006325 µM
  relative viability: 0.45
[17]; first compound 0.02 µM
  relative viability: 0.263
[17]; first compound 0.06325 µM
  relative viability: 0.201
[17]; first compound 0.2 µM
  relative viability: 0.103
[18]; first compound 0.002 µM
  relative viability: 1.1
[18]; first compound 0.006325 µM
  relative viability: 1.13
[18]; first compound 0.02 µM
  relative viability: 1.19
[18]; first compound 0.06325 µM
  relative viability: 1.11
[18]; first compound 0.2 µM
  relative viability: 0.924
[19]; first compound 0.002 µM
  relative viability: 0.737
[19]; first compound 0.006325 µM
  relative viability: 0.361
[19]; first compound 0.02 µM
  relative viability: 0.491
[19]; first compound 0.06325 µM
  relative viability: 0.381
[19]; first compound 0.2 µM
  relative viability: 0.287
[20]; first compound 0.002 µM
  relative viability: 0.778
[20]; first compound 0.006325 µM
  relative viability: 0.655
[20]; first compound 0.02 µM
  relative viability: 0.785
[20]; first compound 0.06325 µM
  relative viability: 0.151
[20]; first compound 0.2 µM
  relative viability: 0.153
[21]; first compound 0.002 µM
  relative viability: 0.461
[21]; first compound 0.02 µM
  relative viability: 0.263
[21]; first compound 0.06325 µM
  relative viability: 0.148
[21]; first compound 0.2 µM
  relative viability: 0.178
[22]; first compound 0.002 µM
  relative viability: 0.7
[22]; first compound 0.006325 µM
  relative viability: 0.527
[22]; first compound 0.02 µM
  relative viability: 0.236
[22]; first compound 0.06325 µM
  relative viability: 0.0453
[22]; first compound 0.2 µM
  relative viability: 0.0503
